# Results: patent publication US10947188B2, “Small molecule ferroptosis inducers” (THE TRUSTEES OF COLUMBIA UNIVERSITY IN THE CITY OF NEW YORK, priority 2016, dated 2021)
# Legend:
# HT-1080 = test: Modulatory profiling: Alamar Blue viability, lethal compound cotreated with death modulator (EC50, AUC); assay type: cell-based; parameters: AUC, modulator HT.3MA / AUC, modulator HT.ALLN / AUC HT.ATA / AUC HT.ActD / AUC HT.BHA / AUC HT.BHT / AUC HT.BocD / AUC HT.CHX / AUC HT.Co2+ / AUC HT.DPQ / AUC HT.EGTA / AUC HT.Lmim / AUC HT.NAD+ / AUC HT.Nec-1 / AUC HT.SP600125 / AUC HT.TLCK / AUC HT.U0126: unit not given beside the values; conditions: for AUC HT.ATA: HT-1080, modulator ATA; for AUC HT.ActD: HT-1080, modulator ActD; for AUC HT.BHA: HT-1080, modulator BHA; for AUC HT.BHT: HT-1080, modulator BHT; for AUC HT.BocD: HT-1080, modulator BocD; for AUC HT.CHX: HT-1080, modulator CHX; for AUC HT.Co2+: HT-1080, modulator Co2+; for AUC HT.CspA: HT-1080, modulator CspA; for AUC HT.DPQ: HT-1080, modulator DPQ; for AUC HT.EGTA: HT-1080, modulator EGTA; for AUC HT.Gd3+: HT-1080, modulator Gd3+; for AUC HT.LNAME: HT-1080, modulator LNAME; for AUC HT.Lmim: HT-1080, modulator Lmim; for AUC HT.NAD+: HT-1080, modulator NAD+; for AUC HT.NMMA: HT-1080, modulator NMMA; for AUC HT.Nec-1: HT-1080, modulator Nec-1; for AUC HT.Pepstatin: HT-1080, modulator Pepstatin; for AUC HT.SP600125: HT-1080, modulator SP600125; for AUC HT.TLCK: HT-1080, modulator TLCK; for AUC HT.U0126: HT-1080, modulator U0126; for HT.atoc (AUC) / HT.bCarotene (AUC) / HT.deferox (AUC) / HT.digoxin (AUC) / HT.trolox (AUC) / HT.zVAD (AUC): HT-1080; for HT.atoc (AUC): modulator atoc; for HT.bCarotene (AUC): modulator bCarotene; for HT.deferox (AUC): modulator deferox; for HT.digoxin (AUC): modulator digoxin; for HT.trolox (AUC): modulator trolox; for HT.zVAD (AUC): modulator zVAD; for AUC, modulator HT.3MA / AUC, modulator HT.ALLN: HT-1080 cells, modulatory profile value (AUC); for AUC, modulator HT.3MA: lethal compound cotreated with modulator 3MA; for AUC, modulator HT.ALLN: lethal compound cotreated with modulator ALLN; on AUC HT.BHA: reference of the scale not given here; on AUC HT.EGTA: reference of the scale not given here
# BJeLR = test: as above; assay type: cell-based, human; parameters: AUC, modulator BJ.Gd3+ / AUC, modulator BJ.LNAME / AUC, modulator BJ.Lmin / AUC, modulator BJ.3MA / AUC, modulator BJ.ALLN / AUC, modulator BJ.Boc D / AUC, modulator BJ.CHX / AUC, modulator BJ.Co2+ / AUC, modulator BJ.Nec-1 / AUC, modulator BJ.Pepstatin / AUC, modulator BJ.TLCK / AUC, modulator BJ.atoc / AUC, modulator BJ.trolox / AUC, modulator BJ.zVAD: unit not given beside the values; conditions: BJeLR cells, modulatory profile value (AUC); for AUC, modulator BJ.3MA: lethal compound cotreated with modulator 3MA; for AUC, modulator BJ.ALLN: lethal compound cotreated with modulator ALLN; for AUC, modulator BJ.Boc D: lethal compound cotreated with modulator Boc D; for AUC, modulator BJ.CHX: lethal compound cotreated with modulator CHX; for AUC, modulator BJ.Co2+: lethal compound cotreated with modulator Co2+; for AUC, modulator BJ.DPQ: lethal compound cotreated with modulator DPQ; for AUC, modulator BJ.Gd3+: lethal compound cotreated with modulator Gd3+; for AUC, modulator BJ.LNAME: lethal compound cotreated with modulator LNAME; for AUC, modulator BJ.Lmin/NAD+: lethal compound cotreated with modulator Lmin/NAD+; for AUC, modulator BJ.Lmin: lethal compound cotreated with modulator Lmin; for AUC, modulator BJ.NAD+: lethal compound cotreated with modulator NAD+; for AUC, modulator BJ.NMMA: lethal compound cotreated with modulator NMMA; for AUC, modulator BJ.Nec-1: lethal compound cotreated with modulator Nec-1; for AUC, modulator BJ.Pepstatin: lethal compound cotreated with modulator Pepstatin; for AUC, modulator BJ.TLCK: lethal compound cotreated with modulator TLCK; for AUC, modulator BJ.atoc: lethal compound cotreated with modulator atoc; for AUC, modulator BJ.trolox: lethal compound cotreated with modulator trolox; for AUC, modulator BJ.zVAD: lethal compound cotreated with modulator zVAD; on AUC, modulator BJ.3MA: reference of the scale not given here; on AUC, modulator BJ.ALLN: reference of the scale not given here; on AUC, modulator BJ.Boc D: reference of the scale not given here; on AUC, modulator BJ.CHX: reference of the scale not given here; on AUC, modulator BJ.Co2+: reference of the scale not given here; on AUC, modulator BJ.DPQ: reference of the scale not given here; on AUC, modulator BJ.Gd3+: reference of the scale not given here; on AUC, modulator BJ.LNAME: reference of the scale not given here; on AUC, modulator BJ.NAD+: reference of the scale not given here; on AUC, modulator BJ.NMMA: reference of the scale not given here; on AUC, modulator BJ.Nec-1: reference of the scale not given here; on AUC, modulator BJ.Pepstatin: reference of the scale not given here; on AUC, modulator BJ.TLCK: reference of the scale not given here
structure (smiles),measurement,setting,value
CC(C)C[C@H](NC(=O)[C@H](CC(C)C)NC(=O)[C@H](CC(C)C)NC(=O)OCc1ccccc1)B(O)O [MG262],AUC HT.ATA,HT-1080,0.0332
same,AUC HT.ActD,HT-1080,−0.05854
same,AUC HT.BHA,HT-1080,−0.0765
same,AUC HT.BHT,HT-1080,−0.1219
same,AUC HT.BocD,HT-1080,0.007582
same,AUC HT.CHX,HT-1080,−0.003977
same,AUC HT.Co2+,HT-1080,−0.04425
same,AUC HT.CspA,HT-1080,−0.2145
same,AUC HT.DPQ,HT-1080,0.008104
same,AUC HT.EGTA,HT-1080,−0.001152
same,AUC HT.Gd3+,HT-1080,−0.003168
same,AUC HT.LNAME,HT-1080,0.007002
same,AUC HT.Lmim,HT-1080,0.001457
same,AUC HT.NAD+,HT-1080,0.07679
same,AUC HT.NMMA,HT-1080,−0.004229
same,AUC HT.Nec-1,HT-1080,−0.06817
same,AUC HT.Pepstatin,HT-1080,−0.006069
same,AUC HT.SP600125,HT-1080,−0.036
same,AUC HT.TLCK,HT-1080,0.03566
same,AUC HT.U0126,HT-1080,−0.06664
same,HT.atoc (AUC),HT-1080,0.05222
same,HT.bCarotene (AUC),HT-1080,−0.009255
same,HT.deferox (AUC),HT-1080,−0.08465
same,HT.digoxin (AUC),HT-1080,0.05597
same,HT.trolox (AUC),HT-1080,−0.02068
same,HT.zVAD (AUC),HT-1080,−0.05837
same,"AUC, modulator HT.3MA",HT-1080,−0.06563
same,"AUC, modulator HT.ALLN",HT-1080,−0.1356
same,"AUC, modulator BJ.3MA",BJeLR,−0.0362
same,"AUC, modulator BJ.ALLN",BJeLR,−0.1989
same,"AUC, modulator BJ.Boc D",BJeLR,0.01756
same,"AUC, modulator BJ.CHX",BJeLR,0.2438
same,"AUC, modulator BJ.Co2+",BJeLR,0.1109
same,"AUC, modulator BJ.DPQ",BJeLR,0.005064
same,"AUC, modulator BJ.Gd3+",BJeLR,0.02134
same,"AUC, modulator BJ.LNAME",BJeLR,0.02272
same,"AUC, modulator BJ.Lmin/NAD+",BJeLR,0.152
same,"AUC, modulator BJ.Lmin",BJeLR,0.1437
same,"AUC, modulator BJ.NAD+",BJeLR,0.06084
same,"AUC, modulator BJ.NMMA",BJeLR,−0.006928
same,"AUC, modulator BJ.Nec-1",BJeLR,−0.01342
same,"AUC, modulator BJ.Pepstatin",BJeLR,0.006624
same,"AUC, modulator BJ.TLCK",BJeLR,0.09405
same,"AUC, modulator BJ.atoc",BJeLR,0.05198
same,"AUC, modulator BJ.trolox",BJeLR,0.008087
same,"AUC, modulator BJ.zVAD",BJeLR,−0.05498
[N-]=[N+]=[N-].[Na+] [NaN3],AUC HT.ATA,HT-1080,0.03107
same,AUC HT.ActD,HT-1080,0.1197
same,AUC HT.BHA,HT-1080,−0.04061
same,AUC HT.BHT,HT-1080,−0.1432
same,AUC HT.BocD,HT-1080,0.008996
same,AUC HT.CHX,HT-1080,0.04722
same,AUC HT.Co2+,HT-1080,0.03941
same,AUC HT.CspA,HT-1080,−0.04777
same,AUC HT.DPQ,HT-1080,−0.00797
same,AUC HT.EGTA,HT-1080,−0.002548
same,AUC HT.Gd3+,HT-1080,−0.004604
same,AUC HT.LNAME,HT-1080,−0.01351
same,AUC HT.Lmim,HT-1080,−0.07613
same,AUC HT.NAD+,HT-1080,0.06683
same,AUC HT.NMMA,HT-1080,0.002822
same,AUC HT.Nec-1,HT-1080,−0.02968
same,AUC HT.Pepstatin,HT-1080,−0.004337
same,AUC HT.SP600125,HT-1080,−0.004079
same,AUC HT.TLCK,HT-1080,0.0226
same,AUC HT.U0126,HT-1080,0.02567
same,HT.atoc (AUC),HT-1080,−0.031
same,HT.bCarotene (AUC),HT-1080,0.00681
same,HT.deferox (AUC),HT-1080,0.07882
same,HT.digoxin (AUC),HT-1080,0.01948
same,HT.trolox (AUC),HT-1080,−0.001376
same,HT.zVAD (AUC),HT-1080,0.01031
same,"AUC, modulator HT.3MA",HT-1080,−0.05719
same,"AUC, modulator HT.ALLN",HT-1080,0.06335
same,"AUC, modulator BJ.3MA",BJeLR,−0.09559
same,"AUC, modulator BJ.ALLN",BJeLR,−0.00382
same,"AUC, modulator BJ.Boc D",BJeLR,−0.007273
same,"AUC, modulator BJ.CHX",BJeLR,0.07262
same,"AUC, modulator BJ.Co2+",BJeLR,−0.02123
same,"AUC, modulator BJ.DPQ",BJeLR,−0.06947
same,"AUC, modulator BJ.Gd3+",BJeLR,0.01113
same,"AUC, modulator BJ.LNAME",BJeLR,−0.01832
same,"AUC, modulator BJ.Lmin/NAD+",BJeLR,−0.007837
same,"AUC, modulator BJ.Lmin",BJeLR,−0.08417
same,"AUC, modulator BJ.NAD+",BJeLR,0.0696
same,"AUC, modulator BJ.NMMA",BJeLR,0.005874
same,"AUC, modulator BJ.Nec-1",BJeLR,−0.05229
same,"AUC, modulator BJ.Pepstatin",BJeLR,0.01611
same,"AUC, modulator BJ.TLCK",BJeLR,0.032
same,"AUC, modulator BJ.atoc",BJeLR,−0.005135
same,"AUC, modulator BJ.trolox",BJeLR,−0.03837
same,"AUC, modulator BJ.zVAD",BJeLR,−0.001065
CC(/C=C/C(=O)NO)=C\[C@@H](C)C(=O)c1ccc(N(C)C)cc1 [TrichostatinA],AUC HT.ATA,HT-1080,−0.0004817
same,AUC HT.ActD,HT-1080,−0.1678
same,AUC HT.BHA,HT-1080,−0.06956
same,AUC HT.BHT,HT-1080,−0.1352
same,AUC HT.BocD,HT-1080,0.04109
same,AUC HT.CHX,HT-1080,−0.09696
same,AUC HT.Co2+,HT-1080,−0.02771
same,AUC HT.CspA,HT-1080,−0.1437
same,AUC HT.DPQ,HT-1080,−0.001553
same,AUC HT.EGTA,HT-1080,−0.01711
same,AUC HT.Gd3+,HT-1080,−0.003398
same,AUC HT.LNAME,HT-1080,0.003502
same,AUC HT.Lmim,HT-1080,−0.05021
same,AUC HT.NAD+,HT-1080,0.03432
same,AUC HT.NMMA,HT-1080,0.004335
same,AUC HT.Nec-1,HT-1080,−0.07289
same,AUC HT.Pepstatin,HT-1080,−0.003985
same,AUC HT.SP600125,HT-1080,−0.06865
same,AUC HT.TLCK,HT-1080,−0.02599
same,AUC HT.U0126,HT-1080,−0.06468
same,HT.atoc (AUC),HT-1080,−0.005062
same,HT.bCarotene (AUC),HT-1080,−0.03472
same,HT.deferox (AUC),HT-1080,−0.1597
same,HT.digoxin (AUC),HT-1080,−0.1261
same,HT.trolox (AUC),HT-1080,−0.03382
same,HT.zVAD (AUC),HT-1080,0.04012
same,"AUC, modulator HT.3MA",HT-1080,−0.1241
same,"AUC, modulator HT.ALLN",HT-1080,−0.1481
same,"AUC, modulator BJ.3MA",BJeLR,−0.004309
same,"AUC, modulator BJ.ALLN",BJeLR,−0.08774
same,"AUC, modulator BJ.Boc D",BJeLR,0.09612
same,"AUC, modulator BJ.CHX",BJeLR,0.2588
same,"AUC, modulator BJ.Co2+",BJeLR,0.3091
same,"AUC, modulator BJ.DPQ",BJeLR,−0.009523
same,"AUC, modulator BJ.Gd3+",BJeLR,−0.008802
same,"AUC, modulator BJ.LNAME",BJeLR,−0.04203
same,"AUC, modulator BJ.Lmin/NAD+",BJeLR,0.1597
same,"AUC, modulator BJ.Lmin",BJeLR,0.08423
same,"AUC, modulator BJ.NAD+",BJeLR,0.05544
same,"AUC, modulator BJ.NMMA",BJeLR,−0.01861
same,"AUC, modulator BJ.Nec-1",BJeLR,−0.04751
same,"AUC, modulator BJ.Pepstatin",BJeLR,−0.01284
same,"AUC, modulator BJ.TLCK",BJeLR,0.02879
same,"AUC, modulator BJ.atoc",BJeLR,−0.01806
same,"AUC, modulator BJ.trolox",BJeLR,−0.02672
same,"AUC, modulator BJ.zVAD",BJeLR,0.1198
